Biological target: T1, Kinesin-like protein KIF11 (Homo sapiens, UniProt P52732)
T1 sequence (P52732 whole entry): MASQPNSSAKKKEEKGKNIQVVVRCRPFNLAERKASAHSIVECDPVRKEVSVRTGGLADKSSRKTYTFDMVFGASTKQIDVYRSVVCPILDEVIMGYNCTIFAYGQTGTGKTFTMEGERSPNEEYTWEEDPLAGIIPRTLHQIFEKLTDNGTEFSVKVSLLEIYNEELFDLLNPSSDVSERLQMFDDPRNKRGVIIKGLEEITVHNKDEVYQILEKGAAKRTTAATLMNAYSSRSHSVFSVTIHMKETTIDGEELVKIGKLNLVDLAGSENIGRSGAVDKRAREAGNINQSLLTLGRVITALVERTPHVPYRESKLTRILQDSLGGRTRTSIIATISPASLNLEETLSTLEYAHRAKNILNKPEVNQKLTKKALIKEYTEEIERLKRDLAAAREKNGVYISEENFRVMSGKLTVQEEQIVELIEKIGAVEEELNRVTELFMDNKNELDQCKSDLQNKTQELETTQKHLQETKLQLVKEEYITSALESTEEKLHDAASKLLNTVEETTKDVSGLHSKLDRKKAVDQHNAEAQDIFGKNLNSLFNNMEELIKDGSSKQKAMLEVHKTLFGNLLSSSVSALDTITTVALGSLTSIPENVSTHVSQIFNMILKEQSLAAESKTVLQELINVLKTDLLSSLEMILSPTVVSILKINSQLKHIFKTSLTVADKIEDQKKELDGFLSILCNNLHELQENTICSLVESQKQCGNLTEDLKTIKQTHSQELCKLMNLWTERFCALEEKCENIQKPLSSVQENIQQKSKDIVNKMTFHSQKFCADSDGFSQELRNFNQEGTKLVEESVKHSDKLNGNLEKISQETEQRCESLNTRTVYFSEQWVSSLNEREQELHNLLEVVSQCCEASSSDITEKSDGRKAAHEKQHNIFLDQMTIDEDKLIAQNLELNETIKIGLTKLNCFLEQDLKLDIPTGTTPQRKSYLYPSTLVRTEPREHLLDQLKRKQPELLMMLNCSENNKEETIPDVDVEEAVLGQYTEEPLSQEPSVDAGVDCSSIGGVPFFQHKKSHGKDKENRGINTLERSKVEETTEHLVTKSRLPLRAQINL
Experiment: Microtubule-Activated Eg5 ATPase Assay
Description: ATPase assays with Eg5 motor domain protein were performed using Kinase-Glo Luminescent Kit as described by the manufacturer (Promega).

- IC50: 477 nM
SMILES: CN(C)C(=O)N1Cc2c(ccc3ccccc23)C(c2cccc(O)c2)C1 (stereo unspecified) [6-(3-hydroxyphenyl)-N,N-dimethyl-4-azatricyclo[8.4.0.0^{2,7}]tetradeca-1(10),2(7),8,11,13-pentaene-4-carboxamide]
